In assay [1] the target is Human KDR (residues 790-1356) (Homo sapiens (Human), UniProt P35968). Description: Human KDR kinase assay, HTRF KinEase (Example B-2). It counts as biochemical. The method, then: (§1) Kinase activity and compound inhibition were also investigated using the HTRF® KinEase assay (Cisbio Cat #62TKOPEB) per manufacturer's instructions. In short, compounds were delivered in 300 nL volumes at 10 different concentrations in DMSO (3% final) to empty 384-well assay plates (Corning cat #3824). A mixture of enzyme, […] biotynlated peptide substrate, and buffer in 10 μL volume was added. The assay was started upon the addition of ATP (at Km). The 10 μL reaction was incubated at room temperature. The reaction was stopped upon the addition of detection buffer containing streptavidin-XL665 ([…]) and TK antibody-Eu3+([…]). After a 60 min incubation at room temperature, the fluorescence at 665 nm and 620 nm was read on an Envision microplate reader (Perkin Elmer).
(§2) Kinase activity normalized to DMSO (100% activity) and reference compound at […] and (0% activity) was calculated using the fluorescence ratio […]. IC50 values were calculated by nonlinear regression analysis using a 4-parameter logistic curve fit in ActivityBase XE (IDBS).
Example B-2: Human KDR (residues 790-1356; CarnaBio, 0.1 ng/well) was also incubated with enzymatic buffer (Cisbio) supplemented with 5 mM MgCl2, 1 mM MnCl2, and 1 mM DTT. The mixture was added to the pre-plated compounds. The reaction was initiated upon addition of ATP at Km (4.0 μM). The reaction was incubated at room temperature for 40 min and stopped upon the addition of SA-XL665 and TK-antibody both diluted in EDTA-containing kinase detection buffer (Cisbio). The kinase activity was calculated as stated above and the IC50 values were reported.
For orientation: Time-resolved FRET reads energy transfer from a long-lived donor to a nearby acceptor.

Assay [2] concerns the target Human MER (residues 528-999) (Homo sapiens (Human), UniProt Q12866). Description: Human Mer kinase assay, HTRF KinEase (Example C-2). Type of assay: biochemical. The method, then: as §1, §2
Example C-2: Human MER (residues 528-999; CarnaBio, 1 ng/well) was also incubated with enzymatic buffer (Cisbio) supplemented with 5 mM MgCl2 and 1 mM DTT. The mixture was added to the pre-plated compounds. The reaction was initiated upon addition of ATP at Km (40 μM). The reaction was incubated at room temperature for 60 min and stopped upon the addition of SA-XL665 and TK-antibody both diluted in EDTA-containing kinase detection buffer (Cisbio). The kinase activity was calculated as stated above and the IC50 values were reported.

Assay [3] has as its target Human MET (residues 956-1390) (Homo sapiens (Human), UniProt P08581). Kind of assay: Human Met kinase assay, HTRF KinEase (Example D-2). As to conditions: protocol of Example D-2 (other compounds); read-out: c-Met IC50. Type of assay: biochemical. How it is done:
as §1, §2
Example D-2: Human MET (residues 956-1390; CarnaBio, 0.1 ng/well) was also incubated with enzymatic buffer (Cisbio) supplemented with 5 mM MgCl2, 1 mM DTT and 1 mM MnCl2. The mixture was added to the pre-plated compounds. […] The reaction was incubated at room temperature for 40 min and stopped upon the addition of SA-XL665 and TK-antibody both diluted in EDTA-containing kinase detection buffer (Cisbio). The kinase activity was calculated as stated above and the IC50 values were reported.

The target of assay [4] is Met (phospho-Met, HGF-stimulated PC-3 prostate cancer cells) (Homo sapiens (Human), UniProt P08581). Description: Met autophosphorylation ELISA in PC-3 cells (Example F). Type of assay: cell-based. The conditions noted are these: cellular activity; Met autophosphorylation ELISA in PC-3 cells; read-out: c-Met IC50. In outline: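 PC-3 cells, serum-starved 3 h, were treated with compounds (8-point dose curve, 0.3% DMSO final) for 1 h, then stimulated with 100 ng/mL recombinant human HGF for 10 min. Lysate phospho-Met (panTyr) was quantified by sandwich ELISA; IC50 from 4-parameter logistic fit.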
Chain of Met (phospho-Met, HGF-stimulated PC-3 prostate cancer cells) (P08581 25-1390): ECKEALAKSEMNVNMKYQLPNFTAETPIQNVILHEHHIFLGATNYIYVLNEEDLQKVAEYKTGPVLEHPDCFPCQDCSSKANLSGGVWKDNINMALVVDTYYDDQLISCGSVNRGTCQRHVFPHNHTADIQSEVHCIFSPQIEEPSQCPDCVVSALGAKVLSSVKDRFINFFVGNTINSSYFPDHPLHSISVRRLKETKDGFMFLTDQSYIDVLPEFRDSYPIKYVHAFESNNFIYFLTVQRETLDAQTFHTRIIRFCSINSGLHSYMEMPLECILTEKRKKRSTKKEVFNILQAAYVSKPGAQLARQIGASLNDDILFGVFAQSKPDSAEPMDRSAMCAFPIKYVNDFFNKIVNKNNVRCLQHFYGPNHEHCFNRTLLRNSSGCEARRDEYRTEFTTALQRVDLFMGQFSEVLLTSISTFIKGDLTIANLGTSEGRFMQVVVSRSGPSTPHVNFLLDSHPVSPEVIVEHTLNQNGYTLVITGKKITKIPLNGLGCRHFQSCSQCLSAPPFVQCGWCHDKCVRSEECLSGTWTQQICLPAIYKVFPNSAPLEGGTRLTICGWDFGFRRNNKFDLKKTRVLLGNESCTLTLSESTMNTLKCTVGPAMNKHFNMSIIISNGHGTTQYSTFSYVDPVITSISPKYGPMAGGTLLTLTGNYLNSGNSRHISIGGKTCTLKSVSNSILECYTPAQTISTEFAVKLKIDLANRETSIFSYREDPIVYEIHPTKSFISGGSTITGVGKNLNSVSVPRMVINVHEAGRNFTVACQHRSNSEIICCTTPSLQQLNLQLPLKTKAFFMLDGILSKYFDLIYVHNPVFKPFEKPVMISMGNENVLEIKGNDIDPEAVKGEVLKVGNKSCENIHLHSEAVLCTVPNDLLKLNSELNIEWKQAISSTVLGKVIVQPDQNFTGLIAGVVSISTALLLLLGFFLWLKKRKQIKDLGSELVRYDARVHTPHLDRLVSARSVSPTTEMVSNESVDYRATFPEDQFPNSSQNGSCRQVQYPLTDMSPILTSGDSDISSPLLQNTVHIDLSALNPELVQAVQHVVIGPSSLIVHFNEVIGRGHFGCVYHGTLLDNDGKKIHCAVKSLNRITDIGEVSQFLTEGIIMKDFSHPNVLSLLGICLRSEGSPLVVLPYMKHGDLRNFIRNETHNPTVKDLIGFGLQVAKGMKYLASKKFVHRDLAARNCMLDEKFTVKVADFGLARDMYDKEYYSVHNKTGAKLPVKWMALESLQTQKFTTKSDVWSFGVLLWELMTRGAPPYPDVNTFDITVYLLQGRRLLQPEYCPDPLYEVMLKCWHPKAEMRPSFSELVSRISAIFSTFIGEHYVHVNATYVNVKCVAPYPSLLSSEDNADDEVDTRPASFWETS
On the technique in general: ELISA stands for enzyme-linked immunosorbent assay.

The target in assay [5] is KDR (phospho-KDR, VEGF165-stimulated HUVEC cells) (Homo sapiens (Human), UniProt P35968). Kind of assay: KDR autophosphorylation ELISA in HUVEC cells (Example G). As to conditions: cellular activity; KDR autophosphorylation ELISA in HUVEC cells. It counts as cell-based. The method in brief: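 Read-out: phospho-KDR in cell lysates by DuoSet IC ELISA, normalised between VEGF-stimulated DMSO wells (100%) and unstimulated wells (0%). Human endothelial cells were starved overnight in serum-free medium, exposed to compound for 1 h, and then pulsed with 100 ng/mL VEGF165 for 5 min.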
Chain of KDR (phospho-KDR, VEGF165-stimulated HUVEC cells) (P35968 20-1356): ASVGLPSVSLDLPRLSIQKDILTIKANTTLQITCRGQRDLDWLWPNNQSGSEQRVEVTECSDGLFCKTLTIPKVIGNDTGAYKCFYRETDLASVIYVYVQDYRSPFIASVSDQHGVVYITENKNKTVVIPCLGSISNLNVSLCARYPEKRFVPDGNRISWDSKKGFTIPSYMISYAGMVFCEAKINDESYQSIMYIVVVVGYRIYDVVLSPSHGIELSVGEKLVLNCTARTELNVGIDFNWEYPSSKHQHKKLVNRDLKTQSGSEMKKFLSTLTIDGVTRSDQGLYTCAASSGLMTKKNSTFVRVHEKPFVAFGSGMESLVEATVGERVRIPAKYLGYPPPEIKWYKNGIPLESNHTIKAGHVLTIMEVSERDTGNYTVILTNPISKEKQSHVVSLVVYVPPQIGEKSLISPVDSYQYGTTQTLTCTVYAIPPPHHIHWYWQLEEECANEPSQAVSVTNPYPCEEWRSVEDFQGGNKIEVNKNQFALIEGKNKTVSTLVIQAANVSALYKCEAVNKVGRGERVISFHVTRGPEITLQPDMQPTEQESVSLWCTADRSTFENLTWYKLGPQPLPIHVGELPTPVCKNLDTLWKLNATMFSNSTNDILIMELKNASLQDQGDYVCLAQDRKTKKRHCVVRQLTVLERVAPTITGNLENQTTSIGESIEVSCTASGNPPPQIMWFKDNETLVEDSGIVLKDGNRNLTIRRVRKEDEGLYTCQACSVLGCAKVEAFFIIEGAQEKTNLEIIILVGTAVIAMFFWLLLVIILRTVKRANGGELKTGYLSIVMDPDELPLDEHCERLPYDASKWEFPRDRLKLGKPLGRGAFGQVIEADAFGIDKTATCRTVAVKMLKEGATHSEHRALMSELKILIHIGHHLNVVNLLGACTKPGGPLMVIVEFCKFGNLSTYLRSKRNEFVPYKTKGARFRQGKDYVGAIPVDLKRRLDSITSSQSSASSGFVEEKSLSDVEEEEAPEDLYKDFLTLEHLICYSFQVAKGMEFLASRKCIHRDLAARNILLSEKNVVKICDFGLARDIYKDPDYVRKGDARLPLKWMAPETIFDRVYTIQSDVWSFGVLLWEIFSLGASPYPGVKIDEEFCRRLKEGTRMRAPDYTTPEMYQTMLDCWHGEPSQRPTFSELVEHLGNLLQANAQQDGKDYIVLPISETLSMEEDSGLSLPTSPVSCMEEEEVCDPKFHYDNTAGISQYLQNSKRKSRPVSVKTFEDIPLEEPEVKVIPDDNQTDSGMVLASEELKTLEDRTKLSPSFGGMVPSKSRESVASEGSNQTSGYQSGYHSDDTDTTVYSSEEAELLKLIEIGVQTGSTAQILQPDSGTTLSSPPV

Assay [6] addresses Mer (phospho-Mer, MERTK-transfected 293A cells) (Homo sapiens (Human), UniProt Q12866). Kind of assay: Mer autophosphorylation ELISA in transient transfected 293A cells (Example H). Type of assay: cell-based. As to conditions: cellular activity; Mer autophosphorylation ELISA in transient transfected 293A cells. The method in brief: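 IC50 from phospho-Mer ELISA of MERTK-transfected 293A cell lysates after 1 h treatment with serially diluted compound in serum-free medium.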

The mark [7] stands for this setting: protocol of Example B-2 (other compounds).
The mark [8] stands for this setting: protocol of Example C-2 (other compounds).

Structures are written as SMILES. Where a name gives a salt, the structure may show the parent alone.

Chain of Mer (phospho-Mer, MERTK-transfected 293A cells) (Q12866 21-999): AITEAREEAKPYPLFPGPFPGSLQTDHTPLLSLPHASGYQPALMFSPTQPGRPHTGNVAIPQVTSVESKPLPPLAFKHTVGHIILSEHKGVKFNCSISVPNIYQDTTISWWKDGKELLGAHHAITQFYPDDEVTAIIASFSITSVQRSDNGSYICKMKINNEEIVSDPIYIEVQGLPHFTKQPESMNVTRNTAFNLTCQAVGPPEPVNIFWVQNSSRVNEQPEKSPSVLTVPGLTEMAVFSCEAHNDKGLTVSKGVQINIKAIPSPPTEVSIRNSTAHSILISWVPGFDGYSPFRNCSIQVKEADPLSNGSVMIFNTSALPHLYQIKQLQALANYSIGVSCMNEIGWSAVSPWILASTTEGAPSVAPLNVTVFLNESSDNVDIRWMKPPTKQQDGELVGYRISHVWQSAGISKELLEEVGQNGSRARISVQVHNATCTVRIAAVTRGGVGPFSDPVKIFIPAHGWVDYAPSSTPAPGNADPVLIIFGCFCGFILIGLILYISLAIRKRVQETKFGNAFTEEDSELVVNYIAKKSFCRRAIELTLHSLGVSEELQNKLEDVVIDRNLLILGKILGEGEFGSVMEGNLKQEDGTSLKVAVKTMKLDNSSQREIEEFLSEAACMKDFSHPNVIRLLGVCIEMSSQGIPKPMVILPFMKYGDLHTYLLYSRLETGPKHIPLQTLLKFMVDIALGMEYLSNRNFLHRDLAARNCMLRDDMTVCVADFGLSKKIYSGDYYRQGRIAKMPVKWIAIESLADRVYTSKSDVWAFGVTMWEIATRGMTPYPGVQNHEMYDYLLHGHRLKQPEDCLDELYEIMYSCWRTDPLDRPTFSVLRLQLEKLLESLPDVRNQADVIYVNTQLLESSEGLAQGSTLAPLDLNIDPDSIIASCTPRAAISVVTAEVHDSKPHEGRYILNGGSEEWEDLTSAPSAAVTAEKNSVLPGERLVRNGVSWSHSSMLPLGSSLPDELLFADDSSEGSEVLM
Chain of Human MET (residues 956-1390) (P08581 956-1390): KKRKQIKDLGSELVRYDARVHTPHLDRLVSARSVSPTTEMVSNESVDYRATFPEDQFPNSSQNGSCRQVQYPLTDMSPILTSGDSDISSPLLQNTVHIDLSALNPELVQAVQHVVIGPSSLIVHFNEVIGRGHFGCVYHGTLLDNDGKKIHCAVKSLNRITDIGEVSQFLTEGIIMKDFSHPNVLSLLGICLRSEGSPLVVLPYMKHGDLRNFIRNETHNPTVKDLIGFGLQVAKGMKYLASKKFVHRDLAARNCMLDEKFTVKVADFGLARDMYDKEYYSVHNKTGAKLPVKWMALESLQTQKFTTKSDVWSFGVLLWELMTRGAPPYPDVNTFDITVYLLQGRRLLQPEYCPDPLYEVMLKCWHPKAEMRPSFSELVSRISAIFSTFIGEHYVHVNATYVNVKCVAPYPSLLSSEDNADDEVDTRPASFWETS
Chain of Human MER (residues 528-999) (Q12866 528-999): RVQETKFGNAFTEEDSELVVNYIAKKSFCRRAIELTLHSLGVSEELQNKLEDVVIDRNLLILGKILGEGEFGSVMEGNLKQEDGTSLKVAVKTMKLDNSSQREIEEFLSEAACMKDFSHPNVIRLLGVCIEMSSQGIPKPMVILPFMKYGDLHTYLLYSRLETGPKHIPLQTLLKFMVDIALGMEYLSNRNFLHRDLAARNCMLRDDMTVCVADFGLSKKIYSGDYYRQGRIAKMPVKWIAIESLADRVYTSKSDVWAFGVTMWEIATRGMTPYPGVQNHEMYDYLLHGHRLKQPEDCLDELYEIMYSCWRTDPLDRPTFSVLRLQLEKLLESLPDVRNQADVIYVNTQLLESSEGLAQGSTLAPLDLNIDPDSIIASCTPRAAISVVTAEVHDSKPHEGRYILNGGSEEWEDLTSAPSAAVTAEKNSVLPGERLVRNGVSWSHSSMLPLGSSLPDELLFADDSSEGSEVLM

On to `COc1cc2nccc(Oc3ccc(NC(=O)C4=C5CCCN5CC(c5ccc(F)cc5)C4=O)cc3F)c2nc1OC` (single isomer, unassigned; enantiomer 2) [Compound 375, N-[4-[(6,7-dimethoxy-1,5-naphthyridin-4-yl)oxy]-3-fluorophenyl]-6-(4-fluorophenyl)-7-oxo-2,3,5,6-tetrahydro-1H-indolizine-8-carboxamide, enantiomer 2], for which the 50% inhibitory concentration (IC50) in assay [1] (setting [7]) was greater than 300 nM; in assay [2] (setting [8]), less than 100 nM; in assay [3], less than 100 nM.

Turning to `COc1ccc(-c2cn(C)cc(C(=O)Nc3ccc(Oc4ccnc5cc(OC)c(OC)nc45)c(F)c3)c2=O)cc1` [Compound 34, N-[4-[(6,7-Dimethoxy-1,5-naphthyridin-4-yl)oxy]-3-fluorophenyl]-5-(4-methoxyphenyl)-1-methyl-4-oxopyridine-3-carboxamide hydrochloride], the IC50 in assay [1] (setting [7]) is less than 100 nM; in assay [2] (setting [8]), less than 100 nM; in assay [3], 100 to 300 nM.

As for `COc1ccc2nccc(Oc3ccc(NC(=O)c4c[nH]c(=O)n(-c5ccc(F)cc5)c4=O)cc3F)c2n1` [Compound 103, N-[3-Fluoro-4-[(6-methoxy-1,5-naphthyridin-4-yl)oxy]phenyl]-3-(4-fluorophenyl)-2,4-dioxo-1H-pyrimidine-5-carboxamide], the IC50 in assay [1] (setting [7]) was greater than 300 nM; in assay [2] (setting [8]), less than 100 nM; in assay [3], less than 100 nM.

With `Cc1ncc(C(=O)Nc2ccc(Oc3ccnc4cc(C(F)(F)F)cnc34)cc2)c(O)c1-c1ccc(F)cc1` [Compound 150, 5-(4-Fluorophenyl)-4-hydroxy-6-methyl-N-[4-[[7-(trifluoromethyl)-1,5-naphthyridin-4-yl]oxy]phenyl]pyridine-3-carboxamide], the IC50 in assay [1] (setting [7]) is greater than 300 nM; in assay [2] (setting [8]), less than 100 nM; in assay [3], less than 100 nM.

As for `Cc1c(-c2ccc(F)cc2)c(=O)c(C(=O)Nc2ccc(Oc3ccnc4cc(C(F)(F)F)cnc34)c(F)c2)cn1C(C)C` [Compound 152, 5-(4-Fluorophenyl)-N-[3-fluoro-4-[[7-(trifluoromethyl)-1,5-naphthyridin-4-yl]oxy]phenyl]-6-methyl-4-oxo-1-propan-2-ylpyridine-3-carboxamide], the half-maximal inhibitory concentration (IC50) in assay [1] (setting [7]), in assay [2] (setting [8]) and in assay [3] was greater than 300 nM each time.

For the compound `CC(C)n1cc(C(=O)Nc2ccc(Oc3ccnc4cc(F)cnc34)c(F)c2)c(=O)c(-c2ccc(F)cc2)c1` [Compound 161, N-[3-Fluoro-4-[(7-fluoro-1,5-naphthyridin-4-yl)oxy]phenyl]-5-(4-fluorophenyl)-4-oxo-1-propan-2-ylpyridine-3-carboxamide], the IC50 in assay [1] (setting [7]), in assay [2] (setting [8]) and in assay [3] was less than 100 nM in each case.

Turning to `COc1ccc2nccc(Oc3ccc(NC(=O)c4c[nH]c(=O)n(-c5ccc(F)cc5)c4=O)cc3)c2n1` [Compound 339, 3-(4-fluorophenyl)-N-[4-[(6-methoxy-1,5-naphthyridin-4-yl)oxy]phenyl]-2,4-dioxo-1H-pyrimidine-5-carboxamide], the half-inhibitory concentration (IC50) in assay [1] (setting [7]) was greater than 300 nM; in assay [2] (setting [8]), 100 to 300 nM; in assay [3], 100 to 300 nM.

For the compound `COc1cc2nccc(Oc3ccc(NC(=O)c4cnc(NC(=O)OC(C)(C)C)n(-c5ccc(F)cc5)c4=O)cc3F)c2nc1OC` [Compound 344, tert-butyl N-[5-[[4-[(6,7-dimethoxy-1,5-naphthyridin-4-yl)oxy]-3-fluorophenyl]icarbamoyl]-1-(4-fluorophenyl)-6-oxopyrimidin-2-yl]carbamate], the half-maximal inhibitory concentration (IC50) was 100 to 300 nM in assay [1] (setting [7]), less than 100 nM in assay [2] (setting [8]) and 100 to 300 nM in assay [3].

As for `COc1cc2nccc(Oc3ccc(NC(=O)c4ccnn(-c5ccc(F)cc5C)c4=O)cc3)c2nc1OC` [Compound 528, N-[4-[(6,7-dimethoxy-1,5-naphthyridin-4-yl)oxy]phenyl]-2-(4-fluoro-2-methylphenyl)-3-oxopyridazine-4-carboxamide], the concentration for half-maximal inhibition (IC50) in assay [1] (protocol of Example B-2) is 100 to 300 nM; in assay [2] (protocol of Example C-2) it was less than 100 nM; in assay [4], less than 100 nM; in assay [5], less than 100 nM; in assay [6], less than 100 nM.

`COc1cnc2c(Oc3ccc(NC(=O)c4ccnn(-c5ccc(F)cc5C)c4=O)cc3F)ccnc2c1` [Compound 529, N-[3-fluoro-4-[(7-methoxy-1,5-naphthyridin-4-yl)oxy]phenyl]-2-(4-fluoro-2-methylphenyl)-3-oxopyridazine-4-carboxamide]: the half-inhibitory concentration (IC50) in assay [1] (protocol of Example B-2) was greater than 300 nM; in assay [2] (protocol of Example C-2) it was 100 to 300 nM; in assay [4] it was less than 100 nM; in assay [5] it was less than 100 nM; in assay [6], less than 100 nM.

Consider `CNC(=O)c1c(-c2ccc(F)cc2)c(=O)c(C(=O)Nc2ccc(Oc3ccnc4cc(OC)c(OC)nc34)c(F)c2)cn1C` [Compound 563, 5-N-[4-[(6,7-Dimethoxy-1,5-naphthyridin-4-yl)oxy]-3-fluorophenyl]-3-(4-fluorophenyl)-2-N,1-dimethyl-4-oxopyridine-2,5-dicarboxamide], for which the IC50 in assay [1] (protocol of Example B-2) is greater than 300 nM; in assay [2] (protocol of Example C-2), less than 100 nM; in assay [4] it was less than 100 nM; in assay [5], greater than 300 nM; in assay [6], less than 100 nM.

On to `COc1cnc2c(Oc3ccc(NC(=O)c4nn(C(C)C)c(C)c(-c5ccc(F)cc5)c4=O)cc3F)ccnc2c1` [Compound 566, N-[3-Fluoro-4-[(7-methoxy-1,5-naphthyridin-4-yl)oxy]phenyl]-5-(4-fluorophenyl)-6-methyl-4-oxo-1-propan-2-ylpyridazine-3-carboxamide], for which the half-maximal inhibitory concentration (IC50) was greater than 300 nM in assay [1] (protocol of Example B-2); less than 100 nM in assay [2] (protocol of Example C-2); less than 100 nM in assay [4]; greater than 300 nM in assay [5]; less than 100 nM in assay [6].

As for `COc1cnc2c(Oc3ccc(NC(=O)c4nnc(C)c(-c5ccc(F)cc5)c4OC(C)C)cc3F)ccnc2c1` [Compound 567, N-[3-Fluoro-4-[(7-methoxy-1,5-naphthyridin-4-yl)oxy]phenyl]-5-(4-fluorophenyl)-6-methyl-4-propan-2-yloxypyridazine-3-carboxamide], the IC50 in assay [1] (protocol of Example B-2), in assay [2] (protocol of Example C-2), in assay [4], in assay [5] and in assay [6] was less than 100 nM each time.

With `CCOc1c(C(=O)Nc2ccc(Oc3ccnc4cc(OC)c(OC)nc34)c(F)c2)nnc(C)c1-c1ccc(F)cc1` [Compound 569, N-[4-[(6,7-Dimethoxy-1,5-naphthyridin-4-yl)oxy]-3-fluorophenyl]-4-ethoxy-5-(4-fluorophenyl)-6-methylpyridazine-3-carboxamide], the half-maximal inhibitory concentration (IC50) in assay [1] (protocol of Example B-2), in assay [2] (protocol of Example C-2), in assay [4], in assay [5] and in assay [6] was less than 100 nM each time.

As usually defined, the IC50 is the point on the concentration scale where inhibition reaches its midpoint.

The values are drawn from patent US12371428B2 (Exelixis, Inc., priority 2019, dated 2025).
